Like-named read-outs stand apart in the source and are kept apart here.
Key:
Tribolium castaneum = test system: Tribolium castaneum
Description: A total of 20 chemical standards were evaluated for their insecticidal activity against the stored grain pest, Tribolium castaneum. These chemical standards represented compounds in the volatolome of Daldinia sp. or were structural analogues of these compounds (Table 5). […] The insect pest was inoculated on to one half of the Petri plate by placing 4 insects onto feed (wheat flour and yeast). A chemical standard was then aliquoted (5 microlitre) on to the other half of the Petri plate on filter paper. Plates were immediately sealed with Parafilm®, covered in aluminium foil (i.e. in the dark) and maintained at room temperature. The mortality of insects was monitored daily by assessing insect movement as an indicator of mortality. The mortality was calculated by comparing the number of dead insects to the total number in the plate, and expressed as percentage mortality (Tables 6). Data were analysed using ANOVA as performed in GenStat, version 14. The experiment was fully randomised with 5 replicates for each endophyte.

Fusarium verticillioides = experiment: Fungicidal bioassay, compounds alone or in synergy; assay type: cell-based; conditions: for fungicidal activity against F. verticillioides: in isolation; for inhibition of growth of the pathogen: in isolation and in combination with any of the compounds tested; for % Inhibition (v control): 4 days
Description: A fungicidal bioassay was established to evaluate the effect of key compounds from the volatolome of Daldinia sp. against the plant pathogenic fungus, Fusarium verticillioides, when applied alone and in synergy with other compounds from the volatolome of Daldinia sp. The pathogen was inoculated on to one third of the Petri plate by placing an agar plug of actively growing hyphae onto PDA. Candidate compounds were then aliquoted (10 microlitres) on to another third of the Petri plate on filter paper. […] After 4 days the growth of the pathogen was determined by measuring the radius of the colony (on two alternate planes).

Pseudomonas syringae = experiment: Bactericidal bioassay, compounds alone or in synergy; assay type: cell-based; conditions: for activity against P. syringae: used alone (acetaldehyde, isovaleraldehyde: alone or in combination); for Growth Scale: compound alone, 10 μL, 3 days, 2 equivalent growth to control, 1 less growth, 0 no growth
Description: A bactericidal bioassay was established to evaluate the effect of the most insecticidal candidate compounds against the plant pathogenic bacterium Pseudomonas syringae, when applied alone or in synergy with other compounds from the volatolome of Daldinia sp. The pathogen was inoculated on to one third of the Petri plate by streaking bacterial cells from an actively growing culture (overnight) on to nutrient agar (NA). A candidate compound was then aliquoted (10 microlitres—except Acetaldehyde: 20 microlitres due to high volatility) onto another third of the Petri plate on filter paper. […] An untreated control was included and consisted of no compounds.

T. castaneum = test system: T. castaneum
Description: The bioassays were conducted in 1 litre Schott bottles. The insect pest was inoculated into the bioassay by placing 9-12 insects onto feed (wheat flour and yeast). The biocidal compounds were then aliquoted into the bioassay at volumes ranging from 20-200 microlitres, ensuring no direct contact with the insect. Bottles were immediately sealed with Parafilm® and maintained at room temperature. The mortality of insects was monitored daily for three days exposure, by assessing insect movement as an indicator of mortality. The mortality was calculated by comparing the number of dead insects to the total number in the bioassay, and expressed as percentage mortality. Data were analysed using ANOVA as performed in GenStat, version 14. The experiment was fully randomised with 4 replicates for each endophyte.

For `CC(C)CCO` [3-Methyl-1-butanol], the “% Mortality Day 1” value (Tribolium castaneum; in vivo) was 45.0%, the “% Mortality Day 2” value (Tribolium castaneum; in vivo) was 45.0% and the “% Mortality Day 3” value (Tribolium castaneum; in vivo) was 50.0%. For the same molecule, the “% Mortality Day 4” value (Tribolium castaneum; in vivo) was 50.0%.

In the case of `CC=O` [Acetaldehyde], the “fungicidal activity against F. verticillioides” value (“fungicidal activity” below) (Fusarium verticillioides) was “high fungicidal activity”, the “inhibition of growth of the pathogen” value (Fusarium verticillioides) was 100% and the “activity against P. syringae” value (Pseudomonas syringae) was “high bactericidal activity”. For the same molecule, the “% Mortality Day 1” value (Tribolium castaneum; 5 microlitre, Day 1) was 36.0%, the “% Mortality Day 2” value (Tribolium castaneum; 5 microlitre, Day 2) was 36.0% and the “% Mortality Day 3” value (Tribolium castaneum; 5 microlitre, Day 3) was 36.0%. The “% Mortality Day 4” value (Tribolium castaneum; 5 microlitre, Day 4) was 36.0%, the “mortality after a 1 day exposure, 20 μL” value (T. castaneum; Volume 20 μL in 1 litre bottle, 1 day) was 2.3% and the “mortality after a 1 day exposure, 50 μL” value (T. castaneum; Volume 50 μL in 1 litre bottle, 1 day) was 28.3%. For the same molecule, the “mortality after a 1 day exposure, 100 μL” value (T. castaneum; Volume 100 μL in 1 litre bottle, 1 day) was 98.2%, the “mortality after a 1 day exposure, 150 μL” value (T. castaneum; Volume 150 μL in 1 litre bottle, 1 day) was 100% and the “mortality after a 1 day exposure, 200 μL” value (T. castaneum; Volume 200 μL in 1 litre bottle, 1 day) was 100%. For the same molecule, the “mortality after a 1 day exposure” value (T. castaneum; volumes ranging from 100-200 microlitres) was 98.2-100.0%.

In the case of `CCC(O)CC` [3-Pentanol], the “% Inhibition (v control)” value (Fusarium verticillioides; compound alone, 10 uL) was 47.3%, the “fungicidal activity” value (Fusarium verticillioides) was “moderate fungicidal activity” and the “Growth Scale” value (Pseudomonas syringae) was 2. The “activity against P. syringae” value (Pseudomonas syringae) was “did not exhibit any activity”, the “% Mortality Day 1” value (Tribolium castaneum; 5 microlitre, Day 1) was 100.0% and the “% Mortality Day 2” value (Tribolium castaneum; 5 microlitre, Day 2) was 100.0%. For the same molecule, the “% Mortality Day 3” value (Tribolium castaneum; 5 microlitre, Day 3) was 100.0%, the “% Mortality Day 4” value (Tribolium castaneum; 5 microlitre, Day 4) was 100.0% and the “mortality after a 1 day exposure, 20 μL” value (T. castaneum; in vivo) was 100%. The “mortality after a 1 day exposure, 50 μL” value (T. castaneum; in vivo) was 100%, the “mortality after a 1 day exposure, 100 μL” value (T. castaneum; in vivo) was 100% and the “mortality after a 1 day exposure, 150 μL” value (T. castaneum; in vivo) was 100%. The “mortality after a 1 day exposure, 200 μL” value (T. castaneum; in vivo) was 100% and the “mortality after one day” value (T. castaneum; in vivo) was 100%.

With `C=C1CCCCC1` [Methylenecyclohexane] the “% Mortality Day 1” value (Tribolium castaneum; 5 microlitre, Day 1) was 8.0%, the “% Mortality Day 2” value (Tribolium castaneum; 5 microlitre, Day 2) was 8.0% and the “% Mortality Day 3” value (Tribolium castaneum; 5 microlitre, Day 3) was 16.0%. For the same molecule, the “% Mortality Day 4” value (Tribolium castaneum; 5 microlitre, Day 4) was 16.0%.

With `CC(=O)CCO` [4-Hydroxy-2-butanone] the “% Mortality Day 1” value (Tribolium castaneum; 5 microlitre, Day 1) was 4.0%, the “% Mortality Day 2” value (Tribolium castaneum; 5 microlitre, Day 2) was 4.0% and the “% Mortality Day 3” value (Tribolium castaneum; 5 microlitre, Day 3) was 4.0%. The “% Mortality Day 4” value (Tribolium castaneum; 5 microlitre, Day 4) was 4.0%.

For `CCCC(=O)O` [Butyric acid], the “% Mortality Day 1” value (Tribolium castaneum; 5 microlitre, Day 1) was 0.0%, the “% Mortality Day 2” value (Tribolium castaneum; 5 microlitre, Day 2) was 0.0% and the “% Mortality Day 3” value (Tribolium castaneum; 5 microlitre, Day 3) was 6.9%. For the same molecule, the “% Mortality Day 4” value (Tribolium castaneum; 5 microlitre, Day 4) was 6.9%.

In the case of `C1=CC2(C=C1)CC2` [Spiro[2.4]hepta-4,6-diene], the “% Mortality Day 1” value (Tribolium castaneum; 5 microlitre, Day 1) was 87.1%, the “% Mortality Day 2” value (Tribolium castaneum; 5 microlitre, Day 2) was 100.0% and the “% Mortality Day 3” value (Tribolium castaneum; 5 microlitre, Day 3) was 100.0%. The “% Mortality Day 4” value (Tribolium castaneum; 5 microlitre, Day 4) was 100.0%.

In the case of `O=Cc1ccccc1` [Benzaldehyde], the “% Mortality Day 1” value (Tribolium castaneum; 5 microlitre, Day 1) was 0.0%, the “% Mortality Day 2” value (Tribolium castaneum; 5 microlitre, Day 2) was 0.0% and the “% Mortality Day 3” value (Tribolium castaneum; 5 microlitre, Day 3) was 0.0%. For the same molecule, the “% Mortality Day 4” value (Tribolium castaneum; 5 microlitre, Day 4) was 0.0%.

For `CC(=O)C(C)=O` [2,3 Butanedione, 2,3-butanedione], the “% Mortality Day 1” value (Tribolium castaneum; in vivo) was 0.0%, the “% Mortality Day 2” value (Tribolium castaneum; in vivo) was 0.0% and the “% Mortality Day 3” value (Tribolium castaneum; in vivo) was 0.0%. The “% Mortality Day 4” value (Tribolium castaneum; in vivo) was 0.0% and the “mortality grouping in title of Table 5” value (Tribolium castaneum; in vivo) was 1,4-cyclohexadiene, Toluene, 2,3 Butanedione, Ethanol: 0% mortality).

For `CC(=O)C(C)O` (stereo not shown) [Acetoin, acetoin], the “% Inhibition (v control)” value (Fusarium verticillioides; compound alone, 10 uL) was 0%, the “fungicidal activity” value (Fusarium verticillioides) was “no activity” and the “Growth Scale” value (Pseudomonas syringae) was 2. The “activity against P. syringae” value (Pseudomonas syringae) was “did not exhibit any activity”, the “% Mortality Day 1” value (Tribolium castaneum; 5 microlitre, Day 1) was 100.0% and the “% Mortality Day 2” value (Tribolium castaneum; 5 microlitre, Day 2) was 100.0%. The “% Mortality Day 3” value (Tribolium castaneum; 5 microlitre, Day 3) was 100.0%, the “% Mortality Day 4” value (Tribolium castaneum; 5 microlitre, Day 4) was 100.0% and the “mortality after a 1 day exposure” value (T. castaneum; in vivo) was 100%. The “mortality after a 1 day exposure, 20 μL” value (T. castaneum; in vivo) was 3%, the “mortality after a 1 day exposure, 50 μL” value (T. castaneum; in vivo) was 100% and the “mortality after a 1 day exposure, 100 μL” value (T. castaneum; in vivo) was 100%. The “mortality after a 1 day exposure, 150 μL” value (T. castaneum; in vivo) was 100% and the “mortality after a 1 day exposure, 200 μL” value (T. castaneum; in vivo) was 100%.

For `CCCC(C)O` (stereo not shown) [2-Pentanol], the “% Mortality Day 1” value (Tribolium castaneum; 5 microlitre, Day 1) was 0.0%, the “% Mortality Day 2” value (Tribolium castaneum; 5 microlitre, Day 2) was 0.0% and the “% Mortality Day 3” value (Tribolium castaneum; 5 microlitre, Day 3) was 0.0%. The “% Mortality Day 4” value (Tribolium castaneum; 5 microlitre, Day 4) was 0.0%.

`CCO` [Ethanol] was tested, and the “% Mortality Day 1” value (Tribolium castaneum; in vivo) was 0.0%, the “% Mortality Day 2” value (Tribolium castaneum; in vivo) was 0.0% and the “% Mortality Day 3” value (Tribolium castaneum; in vivo) was 0.0%. For the same molecule, the “% Mortality Day 4” value (Tribolium castaneum; in vivo) was 0.0% and the “mortality grouping in title of Table 5” value (Tribolium castaneum; in vivo) was 1,4-cyclohexadiene, Toluene, 2,3 Butanedione, Ethanol: 0% mortality).

In the case of `CCC(C)CO` (stereo not shown) [2-Methyl-1-butanol], the “% Mortality Day 1” value (Tribolium castaneum; 5 microlitre, Day 1) was 80.0%, the “% Mortality Day 2” value (Tribolium castaneum; 5 microlitre, Day 2) was 80.0% and the “% Mortality Day 3” value (Tribolium castaneum; 5 microlitre, Day 3) was 80.0%. The “% Mortality Day 4” value (Tribolium castaneum; 5 microlitre, Day 4) was 80.0%.

For `CC1CC=CCC1` (stereo not shown) [4-Methylcyclohexene], the “% Mortality Day 1” value (Tribolium castaneum; 5 microlitre, Day 1) was 4.0%, the “% Mortality Day 2” value (Tribolium castaneum; 5 microlitre, Day 2) was 13.7% and the “% Mortality Day 3” value (Tribolium castaneum; 5 microlitre, Day 3) was 17.7%. For the same molecule, the “% Mortality Day 4” value (Tribolium castaneum; 5 microlitre, Day 4) was 17.7%.

For `CC1=CCC=CC1` [1-Methyl-1,4-cyclohexadiene], the “% Mortality Day 1” value (Tribolium castaneum; 5 microlitre, Day 1) was 0.0%, the “% Mortality Day 2” value (Tribolium castaneum; 5 microlitre, Day 2) was 0.0% and the “% Mortality Day 3” value (Tribolium castaneum; 5 microlitre, Day 3) was 0.0%. For the same molecule, the “% Mortality Day 4” value (Tribolium castaneum; 5 microlitre, Day 4) was 0.0%.

For `C1=CCCCC=C1` [1,3 Cycloheptadiene, 1,3-cycloheptadiene], the “% Mortality Day 1” value (Tribolium castaneum; 5 microlitre, Day 1) was 12.5%, the “% Mortality Day 2” value (Tribolium castaneum; 5 microlitre, Day 2) was 20.8% and the “% Mortality Day 3” value (Tribolium castaneum; 5 microlitre, Day 3) was 27.5%. The “% Mortality Day 4” value (Tribolium castaneum; 5 microlitre, Day 4) was 27.5%.

`CC(C)CC=O` [Isovaleraldehyde] was tested, and the “% Inhibition (v control)” value (Fusarium verticillioides; compound alone, 10 uL) was 100.0%, the “Activity (fungistatic or fungicidal)” value (Fusarium verticillioides; compound alone, 10 uL, plug on fresh PDA plate) was “Fungicidal” and the “fungicidal activity” value (Fusarium verticillioides) was “high fungicidal activity”. For the same molecule, the “inhibition of growth of the pathogen” value (Fusarium verticillioides) was 100%, the “Growth Scale” value (Pseudomonas syringae) was 0.25 and the “activity against P. syringae” value (Pseudomonas syringae) was “high bactericidal activity”. For the same molecule, the “% Mortality Day 1” value (Tribolium castaneum; 5 microlitre, Day 1) was 100.0%, the “% Mortality Day 2” value (Tribolium castaneum; 5 microlitre, Day 2) was 100.0% and the “% Mortality Day 3” value (Tribolium castaneum; 5 microlitre, Day 3) was 100.0%. The “% Mortality Day 4” value (Tribolium castaneum; 5 microlitre, Day 4) was 100.0%, the “mortality after a 1 day exposure” value (T. castaneum; in vivo) was 100% and the “mortality after a 1 day exposure, 20 μL” value (T. castaneum; in vivo) was 3%. The “mortality after a 1 day exposure, 50 μL” value (T. castaneum; in vivo) was 100%, the “mortality after a 1 day exposure, 100 μL” value (T. castaneum; in vivo) was 100% and the “mortality after a 1 day exposure, 150 μL” value (T. castaneum; in vivo) was 100%. For the same molecule, the “mortality after a 1 day exposure, 200 μL” value (T. castaneum; in vivo) was 100%.

For `CCCC=O` [Butyraldehyde], the “% Mortality Day 1” value (Tribolium castaneum; in vivo) was 31.5%, the “% Mortality Day 2” value (Tribolium castaneum; in vivo) was 39.5% and the “% Mortality Day 3” value (Tribolium castaneum; in vivo) was 39.5%. For the same molecule, the “% Mortality Day 4” value (Tribolium castaneum; in vivo) was 39.5%.

Reference: patent publication US20180305657A1, “Bioactive Fungi” (Agriculture Victoria Services PTY LTD, priority 2015, published 2018)
